Measurements from US20070128217A1 (priority 2003, published 2007).

Key:
[1] = test system: control sera (pooled serum of ten healthy LUMC hospital workers; commercial negative donor pooled serum from the Dutch bloodbank); type: binding, human; parameters: Binding of Control serum LUMC to linear peptides / Binding of Control serum Blood-bank to linear peptides / Binding of Control serum LUMC to looped peptides / Binding of Control Serum Blood-Bank to Looped peptides / Binding of Control serum LUMC to linear peptides of the protein M of SARS-CoV Urbani / Binding of Control serum Blood-bank to linear peptides of the protein M of SARS-CoV Urbani / Binding of Control serum LUMC to looped peptides of the protein M of SARS-CoV Urbani / Binding of Control Serum Blood-Bank to Looped peptides of the protein M of SARS-CoV Urbani: unit not given here
[2] = test system: recombinant human anti-SARS-CoV antibody 03-018; type: binding; parameters: Binding of antibody 03-018 to linear peptides of the N protein of SARS-CoV Urbani / Binding of antibody 03-018 to looped/cyclic peptides of the N protein of SARS-CoV Urbani: unit not given here
[3] = test system: antibodies in sera from SARS patients (sera 1a, 1b, 2, 6, 37, 62, London, SARS-yellow, SARS-green); type: binding, human; parameters: Binding of serum 6 to linear peptides of protein X1 of SARS-CoV Urbani / Binding of serum 37 to linear peptides of protein X1 of SARS-CoV Urbani / Binding of serum 6 to looped/cyclic peptide (PEPSCAN-ELISA) / Binding of serum 37 to looped/cyclic peptide (PEPSCAN-ELISA) / Binding of serum 37 to looped/cyclic peptides of protein X1 of SARS-CoV Urbani / Binding of serum 6 to linear peptides of protein X2 / Binding of serum 37 to linear peptides of protein X2 / Binding of serum 37 to looped/cyclic peptides of protein X2 of SARS-CoV Urbani / Binding of serum 6 to linear peptides of protein M of SARS-CoV Urbani / Binding of serum 37 to linear peptides of protein M of SARS-CoV Urbani / Binding of serum 6 to looped/cyclic peptides of protein M of SARS-CoV Urbani / Binding of serum 37 to looped/cyclic peptides of protein M of SARS-CoV Urbani / Binding of serum 6 to linear peptides of protein X3 of SARS-CoV Urbani / Binding of serum 37 to linear peptides of protein X3 of SARS-CoV Urbani / Binding of serum 37 to looped/cyclic peptides of protein X3 of SARS-CoV Urbani / Binding of serum 6 to linear peptides of protein X4 of SARS-CoV Urbani / Binding of serum 37 to linear peptides of protein X4 of SARS-CoV Urbani / Binding of serum 37 to looped/cyclic peptides of protein X4 of SARS-CoV Urbani / Binding of serum 6 to linear peptides of protein X5 of SARS-CoV Urbani / Binding of serum 37 to linear peptides of protein X5 of SARS-CoV Urbani / Binding of serum 37 to looped/cyclic peptides of protein X5 of SARS-CoV Urbani / Binding of serum 6 to linear peptides of protein N of SARS-CoV Urbani / Binding of serum 37 to linear peptides of protein N of SARS-CoV Urbani / Binding of serum 6 to linear peptide (PEPSCAN-ELISA) / Binding of serum 1a to looped/cyclic peptides of protein N of SARS-CoV Urbani / Binding of serum 1b to looped/cyclic peptides of protein N of SARS-CoV Urbani / Binding of serum 2 to looped/cyclic peptides of protein N of SARS-CoV Urbani / Binding of serum 6 to looped/cyclic peptides of protein N of SARS-CoV Urbani / Binding of serum 37 to looped/cyclic peptides of protein N of SARS-CoV Urbani / Binding of serum 62 to looped/cyclic peptides of protein N of SARS-CoV Urbani / Binding of serum London to looped/cyclic peptides of protein N of SARS-CoV Urbani / Binding of serum SARS-green to looped/cyclic peptides of protein N of SARS-CoV Urbani: unit not given here
[4] = test system: rabbit serum obtained by immunizing a rabbit with the SARS-CoV strain Frankfurt 1; type: binding; parameters: Binding of a rabbit serum to linear peptides / Binding of a rabbit serum to looped peptides / Rabbit serum linear peptides / Rabbit serum looped peptides / Binding of a rabbit serum to linear peptides of protein N of SARS-CoV Urbani (Rabbit serum linear peptides) / Binding of a rabbit serum to looped/cyclic peptides of protein N of SARS-CoV Urbani (Rabbit serum looped peptides): unit not given here

Sequence	Binding of antibody 03-018 to linear peptides of the N protein of SARS-CoV Urbani [2]	Binding of antibody 03-018 to looped/cyclic peptides of the N protein of SARS-CoV Urbani [2]	Binding of serum 1a to linear peptides of protein N of SARS-CoV Urbani [3]	Binding of serum 1a to looped/cyclic peptides of protein N of SARS-CoV Urbani [3]	Binding of serum 1b to linear peptides of protein N of SARS-CoV Urbani [3]	Binding of serum 1b to looped/cyclic peptides of protein N of SARS-CoV Urbani [3]	Binding of serum 2 to linear peptides of protein N of SARS-CoV Urbani [3]	Binding of serum 2 to looped/cyclic peptides of protein N of SARS-CoV Urbani [3]	Binding of serum 6 to linear peptides of protein N of SARS-CoV Urbani [3]	Binding of serum 6 to looped/cyclic peptides of protein N of SARS-CoV Urbani [3]	Binding of serum 37 to linear peptides of protein N of SARS-CoV Urbani [3]	Binding of serum 37 to looped/cyclic peptides of protein N of SARS-CoV Urbani [3]	Binding of serum 62 to linear peptides of protein N of SARS-CoV Urbani [3]	Binding of serum 62 to looped/cyclic peptides of protein N of SARS-CoV Urbani [3]	Binding of serum London to linear peptides of protein N of SARS-CoV Urbani [3]	Binding of serum London to looped/cyclic peptides of protein N of SARS-CoV Urbani [3]	Binding of serum SARS-green to looped/cyclic peptides of protein N of SARS-CoV Urbani [3]	Binding of serum SARS-yellow to looped/cyclic peptides of protein N of SARS-CoV Urbani [3]	Binding of a rabbit serum to linear peptides of protein N of SARS-CoV Urbani (Rabbit serum linear peptides) [4]	Binding of a rabbit serum to looped/cyclic peptides of protein N of SARS-CoV Urbani (Rabbit serum looped peptides) [4]	also measured
SGTWLTYHGAIKLDD	0.1	0.2	0.2	0.8	0.1	0.5	0.1	0.7	0.1	0.4	0.7	1.0	0.5	1.2	0.6	0.8	1.8	1.6	0.1	0.5	Control Serum Blood-Bank Looped peptides [1]: 1.0; Control serum Blood-bank linear peptides [1]: 0.5; Control serum LUMC linear peptides [1]: 0.5; Control serum LUMC looped peptides [1]: 0.8; Binding of serum SARS-green to linear peptides of protein N of SARS-CoV Urbani [3]: 0.5; Binding of serum SARS-yellow to linear peptides of protein N of SARS-CoV Urbani [3]: 0.6
SKVSGKGQQQQGQTV	0.1	0.2		0.4		0.2		0.7		0.4		0.6		0.6		0.8	0.5	0.6	0.1	0.6	Binding of Control Serum Blood-Bank to Looped peptides [1]: 0.8; Binding of Control serum Blood-bank to linear peptides [1]: 0.6; Binding of Control serum LUMC to linear peptides [1]: 0.7; Binding of Control serum LUMC to looped peptides [1]: 0.8; Binding of serum 1a to linear peptide (PEPSCAN-ELISA) [3]: 0.2; Binding of serum 1b to linear peptide (PEPSCAN-ELISA) [3]: 0.1; Binding of serum 2 to linear peptide (PEPSCAN-ELISA) [3]: 0.3; Binding of serum 6 to linear peptide (PEPSCAN-ELISA) [3]: 0.1; Binding of serum 37 to linear peptide (PEPSCAN-ELISA) [3]: 0.5; Binding of serum 62 to linear peptide (PEPSCAN-ELISA) [3]: 0.6; Binding of serum London to linear peptide (PEPSCAN-ELISA) [3]: 0.5; Binding of serum SARS-green to linear peptide (PEPSCAN-ELISA) [3]: 0.3; Binding of serum SARS-yellow to linear peptide (PEPSCAN-ELISA) [3]: 0.7
SLPYGANKEGIVWVA	0.1	0.2	0.3	0.3	0.1	0.2	0.2	0.5	0.2	0.3	0.8	0.7	1.2	0.6	0.6	0.4	0.3	0.4	0.2	0.3	Binding of Control Serum Blood-Bank to Looped peptides [1]: 0.6; Binding of Control serum Blood-bank to linear peptides [1]: 0.9; Binding of Control serum LUMC to linear peptides [1]: 0.7; Binding of Control serum LUMC to looped peptides [1]: 0.6; Binding of serum SARS-green to linear peptides of protein N of SARS-CoV Urbani [3]: 0.5; Binding of serum SARS-yellow to linear peptides of protein N of SARS-CoV Urbani [3]: 0.7
SNQRSAPRITFGGPT			0.2	0.4	0.1	0.2	0.2	0.4	0.1	0.4	0.6	0.7	0.6	0.4	0.4	0.9	0.3	0.6	0.4	0.9	Binding of Control Serum Blood-Bank to Looped peptides [1]: 0.7; Binding of Control serum Blood-bank to linear peptides [1]: 0.6; Binding of Control serum LUMC to linear peptides [1]: 0.5; Binding of Control serum LUMC to looped peptides [1]: 0.7; Recognition of the peptide by antibody 03-018 [2]: recognized; Binding of serum SARS-green to linear peptides of protein N of SARS-CoV Urbani [3]: 0.2; Binding of serum SARS-yellow to linear peptides of protein N of SARS-CoV Urbani [3]: 0.5
